Measured values as given in publication PMC5461114, “A bioactive peptide amidating enzyme is required for ciliogenesis” (eLife, 2017).

Legend:
rat PAM (PHM activity) = molecular target: T1, rat PAM (PHM activity) (Rattus norvegicus, UniProt P14925); assay: PHM activity assay in cell lysate; assay type: biochemical; details: mechanism-based PHM inhibitor; PBA added to lysate; vehicle ethanol
T1 construct: rat PAM expressed in mouse corticotropes, cell lysate; PHM domain activity measured
T1 sequence (P14925 36-976): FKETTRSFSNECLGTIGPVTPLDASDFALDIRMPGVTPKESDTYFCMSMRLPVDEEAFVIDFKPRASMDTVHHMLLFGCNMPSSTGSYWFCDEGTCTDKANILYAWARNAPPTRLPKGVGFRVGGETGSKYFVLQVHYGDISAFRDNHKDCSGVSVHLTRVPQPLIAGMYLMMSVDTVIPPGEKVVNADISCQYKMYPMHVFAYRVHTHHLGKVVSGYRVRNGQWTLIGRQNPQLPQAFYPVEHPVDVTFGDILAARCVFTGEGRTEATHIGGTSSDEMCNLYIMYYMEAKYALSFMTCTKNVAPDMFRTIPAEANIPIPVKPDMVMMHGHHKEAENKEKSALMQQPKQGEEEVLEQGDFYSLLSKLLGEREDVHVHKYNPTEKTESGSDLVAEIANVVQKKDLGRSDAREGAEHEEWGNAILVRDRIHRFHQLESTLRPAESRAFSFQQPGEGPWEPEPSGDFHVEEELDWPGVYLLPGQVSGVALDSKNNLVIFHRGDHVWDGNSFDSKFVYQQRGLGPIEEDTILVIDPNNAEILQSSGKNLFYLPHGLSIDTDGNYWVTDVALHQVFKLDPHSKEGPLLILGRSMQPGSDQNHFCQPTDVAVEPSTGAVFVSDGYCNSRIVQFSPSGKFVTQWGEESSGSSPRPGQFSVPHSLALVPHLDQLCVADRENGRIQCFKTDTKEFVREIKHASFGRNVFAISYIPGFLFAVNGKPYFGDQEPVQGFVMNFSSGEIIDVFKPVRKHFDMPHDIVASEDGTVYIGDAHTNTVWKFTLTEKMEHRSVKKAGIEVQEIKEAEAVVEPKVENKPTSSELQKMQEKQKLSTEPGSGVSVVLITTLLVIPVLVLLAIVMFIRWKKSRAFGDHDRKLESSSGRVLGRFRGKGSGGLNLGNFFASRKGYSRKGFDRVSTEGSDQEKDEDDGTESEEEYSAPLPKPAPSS

CrPAM (PHM activity) = molecular target: T2, CrPAM (PHM activity) (Chlamydomonas reinhardtii, UniProt A0A0S2C767); assay: PHM activity assay in cell lysate; assay type: biochemical; details: mechanism-based PHM inhibitor; PBA added to lysate; vehicle ethanol
T2 construct: gene PAM; native full-length bifunctional membrane PAM (110 kDa) in detergent cell lysate; PHM domain activity measured
T2 sequence (A0A0S2C767 22-926): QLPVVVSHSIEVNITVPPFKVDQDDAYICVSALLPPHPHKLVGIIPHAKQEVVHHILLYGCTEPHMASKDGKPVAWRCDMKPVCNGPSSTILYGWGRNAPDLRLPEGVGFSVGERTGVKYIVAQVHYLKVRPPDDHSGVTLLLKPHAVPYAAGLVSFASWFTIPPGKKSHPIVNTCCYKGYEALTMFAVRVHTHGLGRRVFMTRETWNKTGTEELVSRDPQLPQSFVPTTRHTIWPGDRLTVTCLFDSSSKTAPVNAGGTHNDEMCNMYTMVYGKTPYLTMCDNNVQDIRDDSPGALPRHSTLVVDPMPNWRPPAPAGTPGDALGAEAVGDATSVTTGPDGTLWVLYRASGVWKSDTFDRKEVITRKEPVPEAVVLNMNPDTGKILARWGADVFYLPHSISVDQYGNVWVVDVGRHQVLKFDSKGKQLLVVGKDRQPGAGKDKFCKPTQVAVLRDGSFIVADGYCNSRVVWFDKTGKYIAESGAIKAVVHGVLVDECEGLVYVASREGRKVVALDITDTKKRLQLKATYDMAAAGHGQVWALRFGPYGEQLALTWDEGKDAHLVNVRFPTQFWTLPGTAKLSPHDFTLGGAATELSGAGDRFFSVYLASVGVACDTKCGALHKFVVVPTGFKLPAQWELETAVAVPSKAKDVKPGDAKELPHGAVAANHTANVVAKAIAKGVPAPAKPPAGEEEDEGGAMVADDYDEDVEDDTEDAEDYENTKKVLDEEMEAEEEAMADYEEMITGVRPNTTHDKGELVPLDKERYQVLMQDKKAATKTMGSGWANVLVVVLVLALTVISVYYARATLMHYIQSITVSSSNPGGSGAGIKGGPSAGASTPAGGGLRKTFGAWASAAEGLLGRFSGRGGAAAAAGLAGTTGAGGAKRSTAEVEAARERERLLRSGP

`O=C(O)CC=Cc1ccccc1` [4-phenyl-3-butenoic acid] was tested, and the PHM specific activity (rat PAM (PHM activity)) was “PHM specific activity was greatly reduced in both lysates in the presence of PBA” and the PHM specific activity (CrPAM (PHM activity)) was “did inhibit both mammalian and C. reinhardtii PHM activities”.
